Laboratory results from patent US20120010242A1 (ALKERSTRAAT 30 A, priority 2009, published 2012).

Key:
[1] = biological target: D1 dopamine receptor (Homo sapiens, UniProt P21728); experiment: pKi for dopamine receptor D1 (Table 1); assay type: binding
From the text: (§1) The term “other dopamine receptors” relates to, for instance, D1, D2 and D3 dopamine receptors. pKi values of test compounds for dopamine receptors as well as 5-HT2A receptors can be measured using commonly known assays.

[2] = biological target: D3 dopamine receptor (Homo sapiens, UniProt P35462); experiment: pKi for dopamine receptor D3 (Table 1); assay type: binding
From the text: (§2) The term “other 5HT receptors” as used herein relate to, for instance, 5-HT1 receptors (e.g. 5-HT1A, 5-HT1 B, 5-HT1D, 5-HT1 E, 5-HT1F), 5-HT2B, 5-HT2C, 5-HT6 (rat) and 5-HT7 (rat). The expression “selective affinity for the 5-HT2A receptor” relates to a receptor having a higher affinity for the 5-HT2A receptor than for other 5-HT receptors. The expression “selective affinity for the D4 receptor” means that the receptor has a higher affinity for the dopamine D4 receptor than for other dopamine receptors. The term “other dopamine receptors” relates to, for instance, D1, D2 and D3 dopamine receptors. pKi values of test compounds for dopamine receptors as well as 5-HT2A receptors can be measured using commonly known assays.

[3] = biological target: T1, D4 receptor (Homo sapiens, UniProt P21917); experiment: pKi for dopamine receptor D4 (Table 1); assay type: binding
T1 sequence (P21917 1-419): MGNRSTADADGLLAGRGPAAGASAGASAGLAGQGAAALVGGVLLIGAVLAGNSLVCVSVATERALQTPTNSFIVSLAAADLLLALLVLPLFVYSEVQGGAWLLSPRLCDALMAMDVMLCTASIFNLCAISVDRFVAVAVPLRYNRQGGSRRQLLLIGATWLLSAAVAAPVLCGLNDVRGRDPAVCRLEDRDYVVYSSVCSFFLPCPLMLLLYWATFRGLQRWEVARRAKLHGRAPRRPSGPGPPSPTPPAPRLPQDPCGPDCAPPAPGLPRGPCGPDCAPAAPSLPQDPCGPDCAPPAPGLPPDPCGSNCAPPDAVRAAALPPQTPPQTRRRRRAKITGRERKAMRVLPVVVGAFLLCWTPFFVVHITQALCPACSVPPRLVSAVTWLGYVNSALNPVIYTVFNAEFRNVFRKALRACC
From the text: as §2

[4] = biological target: T2, 5-HT1A receptor (Homo sapiens, UniProt P08908); experiment: pKi for 5HT1A receptor (Table 1); assay type: binding
T2 sequence (P08908 1-422): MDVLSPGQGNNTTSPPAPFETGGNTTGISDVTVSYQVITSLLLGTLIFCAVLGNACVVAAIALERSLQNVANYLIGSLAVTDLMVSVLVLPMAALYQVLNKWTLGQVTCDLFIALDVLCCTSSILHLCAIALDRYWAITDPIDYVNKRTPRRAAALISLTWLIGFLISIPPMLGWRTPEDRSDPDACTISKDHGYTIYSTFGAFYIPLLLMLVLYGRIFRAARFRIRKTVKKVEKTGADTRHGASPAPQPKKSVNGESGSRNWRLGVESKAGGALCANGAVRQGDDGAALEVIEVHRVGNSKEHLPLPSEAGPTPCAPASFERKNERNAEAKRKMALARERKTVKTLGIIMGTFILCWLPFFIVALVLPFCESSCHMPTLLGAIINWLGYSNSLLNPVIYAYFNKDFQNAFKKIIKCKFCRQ
From the text: as §1

[5] = biological target: 5-HT2A receptor (Homo sapiens, UniProt P28223); experiment: pKi for 5HT2A receptor (Table 1); assay type: binding
5-HT2A receptor, sequence (P28223 whole entry): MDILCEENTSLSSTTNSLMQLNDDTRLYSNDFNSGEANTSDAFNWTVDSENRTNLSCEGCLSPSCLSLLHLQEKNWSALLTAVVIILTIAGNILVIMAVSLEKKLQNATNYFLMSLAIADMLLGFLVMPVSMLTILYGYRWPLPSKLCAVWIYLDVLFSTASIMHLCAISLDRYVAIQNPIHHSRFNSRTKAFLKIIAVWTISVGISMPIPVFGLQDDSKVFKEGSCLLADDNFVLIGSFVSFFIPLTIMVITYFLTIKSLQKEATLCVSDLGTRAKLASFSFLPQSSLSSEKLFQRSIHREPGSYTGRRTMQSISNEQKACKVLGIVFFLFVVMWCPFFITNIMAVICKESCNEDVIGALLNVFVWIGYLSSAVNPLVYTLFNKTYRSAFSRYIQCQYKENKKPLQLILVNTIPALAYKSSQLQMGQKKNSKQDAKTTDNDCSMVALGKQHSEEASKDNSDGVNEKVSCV
From the text: as §2

[6] = biological target: T3, 5-HT2C receptor (Homo sapiens, UniProt P28335); experiment: pKi for 5HT2C receptor (Table 1); assay type: binding
T3 sequence (P28335 33-458): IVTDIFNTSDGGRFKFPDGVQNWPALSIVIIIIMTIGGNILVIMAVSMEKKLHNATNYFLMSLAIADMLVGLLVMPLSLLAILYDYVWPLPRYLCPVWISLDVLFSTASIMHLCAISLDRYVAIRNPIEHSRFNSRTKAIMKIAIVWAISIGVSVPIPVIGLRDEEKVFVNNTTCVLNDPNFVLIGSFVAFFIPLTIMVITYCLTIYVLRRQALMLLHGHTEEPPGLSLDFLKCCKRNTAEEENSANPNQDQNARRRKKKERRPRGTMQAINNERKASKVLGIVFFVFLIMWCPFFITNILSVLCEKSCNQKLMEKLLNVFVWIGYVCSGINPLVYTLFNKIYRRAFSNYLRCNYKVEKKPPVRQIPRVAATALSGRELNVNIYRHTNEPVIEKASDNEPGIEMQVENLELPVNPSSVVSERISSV
From the text: as §2

[7] = biological target: T4, adrenergic receptor Alpha 1A (Homo sapiens, UniProt P35348); experiment: pKi for adrenergic receptor Alpha1A (Table 1); assay type: binding
T4 sequence (P35348 1-466): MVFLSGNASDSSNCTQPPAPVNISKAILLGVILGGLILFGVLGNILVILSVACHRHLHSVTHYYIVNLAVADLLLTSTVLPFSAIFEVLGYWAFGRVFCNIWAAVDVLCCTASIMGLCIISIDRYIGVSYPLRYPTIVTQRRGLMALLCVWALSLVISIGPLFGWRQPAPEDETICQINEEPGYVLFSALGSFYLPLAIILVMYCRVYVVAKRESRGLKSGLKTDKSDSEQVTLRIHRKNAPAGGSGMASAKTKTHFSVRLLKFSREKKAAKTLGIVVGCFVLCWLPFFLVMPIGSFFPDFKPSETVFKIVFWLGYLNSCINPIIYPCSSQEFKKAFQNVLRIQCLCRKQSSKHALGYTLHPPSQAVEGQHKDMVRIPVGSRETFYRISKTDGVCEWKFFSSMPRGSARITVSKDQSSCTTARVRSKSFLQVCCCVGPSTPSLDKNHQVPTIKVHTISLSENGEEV
From the text: as §1

[8] = biological target: T5, adrenergic receptor Alpha 2A (Homo sapiens, UniProt P08913); experiment: pKi for adrenergic receptor Alpha2A (Table 1); assay type: binding
T5 sequence (P08913 1-465): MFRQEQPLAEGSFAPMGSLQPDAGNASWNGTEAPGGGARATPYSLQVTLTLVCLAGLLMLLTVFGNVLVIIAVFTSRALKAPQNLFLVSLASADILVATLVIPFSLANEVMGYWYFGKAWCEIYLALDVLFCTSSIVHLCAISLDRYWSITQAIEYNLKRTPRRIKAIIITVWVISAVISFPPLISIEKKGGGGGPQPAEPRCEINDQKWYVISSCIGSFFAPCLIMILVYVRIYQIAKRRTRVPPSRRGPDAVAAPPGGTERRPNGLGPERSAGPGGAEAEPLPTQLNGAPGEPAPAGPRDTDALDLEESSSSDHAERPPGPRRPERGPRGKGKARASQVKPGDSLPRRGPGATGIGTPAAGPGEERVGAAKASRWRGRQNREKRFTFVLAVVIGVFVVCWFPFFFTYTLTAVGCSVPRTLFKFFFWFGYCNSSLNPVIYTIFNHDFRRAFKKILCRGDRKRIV
From the text: as §2

[9] = biological target: 5-HT1B receptor (Homo sapiens, UniProt P28222); experiment: pKi for 5HT1B receptor (Table 1); assay type: binding
5-HT1B receptor, sequence (P28222 whole entry): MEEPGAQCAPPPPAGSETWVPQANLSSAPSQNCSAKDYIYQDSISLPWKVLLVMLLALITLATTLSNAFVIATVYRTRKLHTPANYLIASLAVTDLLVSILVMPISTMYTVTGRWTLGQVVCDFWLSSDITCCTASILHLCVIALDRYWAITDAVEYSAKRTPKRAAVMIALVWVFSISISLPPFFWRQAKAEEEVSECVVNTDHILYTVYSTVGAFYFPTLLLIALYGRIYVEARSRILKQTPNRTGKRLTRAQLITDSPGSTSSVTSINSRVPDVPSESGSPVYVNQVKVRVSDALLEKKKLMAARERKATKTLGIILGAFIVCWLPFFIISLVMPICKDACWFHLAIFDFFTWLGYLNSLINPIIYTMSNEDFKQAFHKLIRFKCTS

[10] = biological target: 5-HT1D receptor (Homo sapiens, UniProt P28221); experiment: pKi for 5HT1D receptor (Table 1); assay type: binding
5-HT1D receptor, sequence (P28221 whole entry): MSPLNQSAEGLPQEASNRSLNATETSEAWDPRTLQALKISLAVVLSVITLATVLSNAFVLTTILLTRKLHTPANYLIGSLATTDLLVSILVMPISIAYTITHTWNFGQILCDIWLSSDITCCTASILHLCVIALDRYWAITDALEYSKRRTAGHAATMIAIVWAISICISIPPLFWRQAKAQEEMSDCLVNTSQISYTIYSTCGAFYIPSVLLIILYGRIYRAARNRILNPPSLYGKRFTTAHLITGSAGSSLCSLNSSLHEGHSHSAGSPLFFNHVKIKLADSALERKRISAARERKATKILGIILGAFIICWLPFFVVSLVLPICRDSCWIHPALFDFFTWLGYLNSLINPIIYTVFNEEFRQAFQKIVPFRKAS

[11] = biological target: 5-HT2B receptor (Homo sapiens, UniProt P41595); experiment: pKi for 5HT2B receptor (Table 1); assay type: binding
5-HT2B receptor, sequence (P41595 whole entry): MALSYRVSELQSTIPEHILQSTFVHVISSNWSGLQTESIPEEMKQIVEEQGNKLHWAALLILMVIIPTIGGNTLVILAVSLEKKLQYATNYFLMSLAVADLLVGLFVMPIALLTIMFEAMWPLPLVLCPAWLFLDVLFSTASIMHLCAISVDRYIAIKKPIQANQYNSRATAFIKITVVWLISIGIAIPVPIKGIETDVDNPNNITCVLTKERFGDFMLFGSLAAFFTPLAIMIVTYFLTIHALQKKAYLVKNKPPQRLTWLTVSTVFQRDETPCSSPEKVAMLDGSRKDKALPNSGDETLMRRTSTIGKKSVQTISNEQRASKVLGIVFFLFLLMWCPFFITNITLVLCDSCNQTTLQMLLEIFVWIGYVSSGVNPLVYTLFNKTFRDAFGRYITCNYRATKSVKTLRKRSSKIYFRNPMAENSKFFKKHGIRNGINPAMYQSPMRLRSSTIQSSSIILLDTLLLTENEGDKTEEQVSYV
From the text: as §1

[12] = biological target: other 5HT receptors; experiment: pKi towards other 5HT receptors; assay type: binding; settings: 5HT receptors other than 5-HT2A
From the text: (§3) The term “other 5HT receptors” as used herein relate to, for instance, 5-HT1 receptors (e.g. 5-HT1A, 5-HT1 B, 5-HT1D, 5-HT1 E, 5-HT1F), 5-HT2B, 5-HT2C, 5-HT6 (rat) and 5-HT7 (rat). […] The term “other dopamine receptors” relates to, for instance, D1, D2 and D3 dopamine receptors. pKi values of test compounds for dopamine receptors as well as 5-HT2A receptors can be measured using commonly known assays.

[13] = biological target: other dopamine receptors; experiment: pKi towards other dopamine receptors; assay type: binding; settings: dopamine receptors other than D4
From the text: as §3

[14] = tested on: patients with treatment refractory major depression; experiment: Semi-naturalistic open label study of low dose pipamperone in treatment refractory major depression; assay type: in vivo, human
Method: Design: Semi-naturalistic i.e. inclusion of every 'natural' patient in an outpatient practice but without concomitant use of mood enhancing drugs, open label Control: No Phase: Phase Ila-preliminary Proof of Concept Location: Belgium -Research Centre […] Adverse events are assessed on: body as a whole, central and peripheral nervous system, gastrointestinal, musculoskeletal, psychiatric, respiratory, skin and appendages, vascular and urinary, taking into account discontinued treatment due to adverse events. Laboratory parameters, ECG, bodyweight and vital signs are not measured since this is a naturalistic study.

[15] = biological target: D2 dopamine receptor (Homo sapiens, UniProt P14416); experiment: pKi for dopamine receptor D2 (Table 1); assay type: binding
D2 dopamine receptor, sequence (P14416 whole entry): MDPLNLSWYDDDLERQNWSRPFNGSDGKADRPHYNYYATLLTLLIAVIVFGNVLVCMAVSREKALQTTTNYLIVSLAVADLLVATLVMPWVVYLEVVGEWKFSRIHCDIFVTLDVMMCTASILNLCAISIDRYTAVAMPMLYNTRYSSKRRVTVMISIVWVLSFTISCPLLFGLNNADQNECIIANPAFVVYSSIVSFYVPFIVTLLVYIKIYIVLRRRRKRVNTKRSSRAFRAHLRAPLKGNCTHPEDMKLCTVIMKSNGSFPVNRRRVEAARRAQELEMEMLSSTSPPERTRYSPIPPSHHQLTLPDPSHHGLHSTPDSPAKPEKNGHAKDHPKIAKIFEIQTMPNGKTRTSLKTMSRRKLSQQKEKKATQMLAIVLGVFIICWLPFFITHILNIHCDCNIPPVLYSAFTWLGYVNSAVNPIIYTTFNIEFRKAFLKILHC
From the text: as §1

[16] = biological target: 5-HT6 (rat) receptor (Rattus norvegicus, UniProt P31388); experiment: pKi for 5HT6 rat receptor (Table 1); assay type: binding
5-HT6 (rat) receptor, sequence (P31388 whole entry): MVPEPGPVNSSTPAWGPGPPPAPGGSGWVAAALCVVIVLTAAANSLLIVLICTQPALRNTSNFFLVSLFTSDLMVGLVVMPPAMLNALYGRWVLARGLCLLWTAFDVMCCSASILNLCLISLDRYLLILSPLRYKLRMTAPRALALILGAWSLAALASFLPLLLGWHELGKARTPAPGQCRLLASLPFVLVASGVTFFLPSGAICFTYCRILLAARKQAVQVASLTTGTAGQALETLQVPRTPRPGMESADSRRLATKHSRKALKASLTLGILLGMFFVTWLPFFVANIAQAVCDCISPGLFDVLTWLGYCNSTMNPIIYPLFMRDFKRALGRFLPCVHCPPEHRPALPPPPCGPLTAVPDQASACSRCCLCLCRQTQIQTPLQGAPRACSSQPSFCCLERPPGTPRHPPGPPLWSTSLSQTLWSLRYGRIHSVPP

[17] = biological target: 5-HT7 (rat) receptor (Rattus norvegicus, UniProt P32305); experiment: pKi for 5HT7 rat receptor (Table 1); assay type: binding
[18] = biological target: adrenergic receptor Alpha 2B (Homo sapiens, UniProt P18089); experiment: pKi for adrenergic receptor Alpha2B (Table 1); assay type: binding
adrenergic receptor Alpha 2B, sequence (P18089 whole entry): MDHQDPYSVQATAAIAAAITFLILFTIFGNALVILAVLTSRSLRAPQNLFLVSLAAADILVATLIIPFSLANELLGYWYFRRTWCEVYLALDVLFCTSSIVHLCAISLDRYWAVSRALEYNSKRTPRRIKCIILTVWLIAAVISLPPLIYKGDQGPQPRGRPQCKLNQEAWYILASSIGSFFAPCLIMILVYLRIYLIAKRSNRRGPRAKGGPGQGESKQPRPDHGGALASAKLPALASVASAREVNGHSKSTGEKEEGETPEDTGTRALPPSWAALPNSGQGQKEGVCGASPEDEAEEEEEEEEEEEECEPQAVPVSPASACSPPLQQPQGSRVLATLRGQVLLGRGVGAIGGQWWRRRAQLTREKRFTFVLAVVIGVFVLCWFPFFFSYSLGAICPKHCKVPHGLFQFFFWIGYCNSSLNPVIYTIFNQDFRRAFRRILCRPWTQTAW

[19] = biological target: adrenergic receptor Alpha 2C (Homo sapiens, UniProt P18825); experiment: pKi for adrenergic receptor Alpha2C (Table 1); assay type: binding
[20] = biological target: adrenergic receptor Beta 1 (Homo sapiens, UniProt P08588); experiment: pKi for adrenergic receptor Beta1 (Table 1); assay type: binding
adrenergic receptor Beta 1, sequence (P08588 whole entry): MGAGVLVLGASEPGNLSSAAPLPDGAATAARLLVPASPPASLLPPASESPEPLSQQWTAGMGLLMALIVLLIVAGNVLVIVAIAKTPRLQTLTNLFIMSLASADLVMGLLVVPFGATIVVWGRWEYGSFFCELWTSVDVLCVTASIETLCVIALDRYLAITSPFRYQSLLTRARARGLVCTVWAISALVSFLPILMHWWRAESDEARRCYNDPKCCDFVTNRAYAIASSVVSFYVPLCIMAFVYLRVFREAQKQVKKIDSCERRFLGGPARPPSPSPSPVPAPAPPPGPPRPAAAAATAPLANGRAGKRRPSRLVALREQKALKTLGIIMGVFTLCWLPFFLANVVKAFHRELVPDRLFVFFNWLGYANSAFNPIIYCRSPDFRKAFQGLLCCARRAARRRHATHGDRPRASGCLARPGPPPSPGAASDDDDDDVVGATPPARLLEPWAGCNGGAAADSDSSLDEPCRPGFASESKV

[21] = biological target: adrenergic receptor Beta 2 (Homo sapiens, UniProt P07550); experiment: pKi for adrenergic receptor Beta2 (Table 1); assay type: binding
[22] = biological target: 5-HT1E receptor (Homo sapiens, UniProt P28566); experiment: pKi for 5HT1E receptor (Table 1); assay type: binding
5-HT1E receptor, sequence (P28566 whole entry): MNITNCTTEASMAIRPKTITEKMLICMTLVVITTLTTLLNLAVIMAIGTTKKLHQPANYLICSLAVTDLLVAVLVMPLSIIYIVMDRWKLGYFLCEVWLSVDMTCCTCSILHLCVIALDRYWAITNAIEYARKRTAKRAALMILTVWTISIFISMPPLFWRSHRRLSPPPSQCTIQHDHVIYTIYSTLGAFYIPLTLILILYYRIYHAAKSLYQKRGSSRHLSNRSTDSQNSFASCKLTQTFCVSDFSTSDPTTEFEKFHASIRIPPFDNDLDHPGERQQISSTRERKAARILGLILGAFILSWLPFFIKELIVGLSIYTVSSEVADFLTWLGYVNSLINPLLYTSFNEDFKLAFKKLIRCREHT

[23] = tested on: patients; settings: clinical trials; cited from earlier work

D1 dopamine receptor, sequence (P21728 whole entry): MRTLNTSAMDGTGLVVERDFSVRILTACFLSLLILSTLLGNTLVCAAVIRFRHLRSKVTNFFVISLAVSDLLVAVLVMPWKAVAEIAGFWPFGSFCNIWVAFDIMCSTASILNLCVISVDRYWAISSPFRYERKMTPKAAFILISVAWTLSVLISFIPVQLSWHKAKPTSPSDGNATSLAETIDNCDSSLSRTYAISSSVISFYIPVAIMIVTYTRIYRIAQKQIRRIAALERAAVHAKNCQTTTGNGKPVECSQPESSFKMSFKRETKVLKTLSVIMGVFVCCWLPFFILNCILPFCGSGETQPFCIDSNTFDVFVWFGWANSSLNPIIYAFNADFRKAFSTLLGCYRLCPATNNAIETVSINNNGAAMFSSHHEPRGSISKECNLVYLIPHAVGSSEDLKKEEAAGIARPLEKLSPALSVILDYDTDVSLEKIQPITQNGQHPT
D3 dopamine receptor, sequence (P35462 whole entry): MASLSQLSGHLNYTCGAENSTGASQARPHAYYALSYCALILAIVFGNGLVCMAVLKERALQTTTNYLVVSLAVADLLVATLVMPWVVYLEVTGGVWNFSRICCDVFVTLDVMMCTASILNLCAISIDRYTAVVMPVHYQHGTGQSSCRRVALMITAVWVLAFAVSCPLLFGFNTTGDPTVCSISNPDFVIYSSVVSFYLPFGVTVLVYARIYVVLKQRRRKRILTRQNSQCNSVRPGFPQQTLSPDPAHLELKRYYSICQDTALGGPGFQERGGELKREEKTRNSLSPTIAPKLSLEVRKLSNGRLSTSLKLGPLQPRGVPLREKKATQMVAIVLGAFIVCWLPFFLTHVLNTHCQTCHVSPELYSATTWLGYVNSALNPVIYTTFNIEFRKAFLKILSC

Row | Structure (SMILES) | pKi D3 [2] | pKi D4 [3] | pKi 5HT1A [4] | pKi 5HT2A [5] | pKi 5HT2C [6] | pKi Alpha1A [7] | pKi Alpha2A [8] | further results
1 | CCN1CCC[C@H]1CNC(=O)c1c(O)c(Cl)cc(Cl)c1OC (racemic) [Raciopride] | 8-9 | <6 | <6 | 6-7 | <6 | <6 | <6 | pKi D1 [1]: <6
2 | CCNC(=O)N1CCN(CCCC(c2ccc(F)cc2)c2ccc(F)cc2)CC1 [Amperozide] | – | – | – | – | – | – | – | Ki [3]: > 1000 nM
3 | Fc1cccc2c1O[C@H]1CNC[C@@H]1O2 [Fluparoxan] | – | – | – | – | – | – | – | Ki [5]: > 1000 nM
4 | OC1(c2ccc(Cl)cc2)CCN(Cc2c[nH]c3ccccc23)CC1 [L741626] | 7-8 | 6-7 | – | – | – | – | <6 | pKi 5HT1B [9]: <6; pKi 5HT1D [10]: <6; pKi 5HT2B [11]: 6-7
5 | NC(=O)C1(N2CCCCC2)CCN(CCCC(=O)c2ccc(F)cc2)CC1 [Pipamperone, 1′-[3-(p-Fluorobenzoyl)propyl]-[1,4′-bipiperidine]-4′-carboxamide] | – | – | – | – | – | – | – | Ki [3]: ≤ 10 nM; pKi towards other 5HT receptors [12]: less than 8; pKi towards other dopamine receptors [13]: less than 8; tolerability in patients with depression ([14]; 1-20 mg/day PO, 8 weeks): generally well tolerated; anti-depressant effect on treatment refractory patients ([14]; 1-20 mg/day PO, 8 weeks, refractory towards SSRIs): apparent; sedative effects ([14]; doses used in the study (1-20 mg/day), observed at higher doses): lacking; anti-depressant effect ([14]; extremely unconventional low dose, 1-20 mg/day PO, 8 weeks, open label): apparent
6 | O=C(CC1CCN(CCOc2cccc3c2OCCO3)C1)c1ccc(F)cc1 (centres unmarked) [S16924] | 7-8 | 7-8 | 8-9 | >9 | 7-8 | 8-9 | 6-7 | pKi D2 [15]: 7-8; pKi 5HT2B [11]: 8-9; pKi 5HT6rat [16]: 7-8; pKi 5HT7rat [17]: 7-8; pKi Alpha2B [18]: 7-8; pKi Alpha2C [19]: 6-7; pKi Beta1 [20]: <6; pKi Beta2 [21]: <6
7 | O=C1N(CCN2CCC(c3noc4cc(F)ccc34)CC2)CCN1c1ccccc1 [S18327] | 6-7 | 8-9 | 7-8 | 8-9 | 6-7 | >9 | 6-7 | pKi D1 [1]: 7-8; pKi D2 [15]: 7-8
8 | N#Cc1ccc2c(c1)[C@H]1CN(CCCCNC(=O)c3ccc(-c4ccccc4)cc3)C[C@@H]1CO2 [S33084] | >9 | <6 | <6 | 6-7 | 7-8 | 6-7 | <6 | pKi D1 [1]: 6-7; pKi D2 [15]: 7-8; pKi 5HT1B [9]: 6-7; pKi 5HT1D [10]: 6-7; pKi 5HT2B [11]: 6-7
9 | OCCOCCN1CCN(C2=Nc3ccccc3Sc3ccccc32)CC1 [Seroquel] | – | – | – | – | – | – | – | Ki [22]: > 1000 nM
10 | CN(C)CCOC1=Cc2ccccc2Sc2ccc(Cl)cc21 [Zotepine] | – | – | – | – | – | – | – | Ki [3]: 10 to 100 nM
11 | CN(C)CCCC1(c2ccc(F)cc2)OCc2cc(C#N)ccc21 (centres unmarked) [citalopram] | – | – | – | – | – | – | – | patients reporting one or more of the listed side effects [23]: over 10%
